The target of the first assay is T1, 5α-Reductase (Homo sapiens, UniProt P18405).
T1 construct: host or cells: Hs68 human genital skin fibroblasts
T1 sequence (P18405 1-259): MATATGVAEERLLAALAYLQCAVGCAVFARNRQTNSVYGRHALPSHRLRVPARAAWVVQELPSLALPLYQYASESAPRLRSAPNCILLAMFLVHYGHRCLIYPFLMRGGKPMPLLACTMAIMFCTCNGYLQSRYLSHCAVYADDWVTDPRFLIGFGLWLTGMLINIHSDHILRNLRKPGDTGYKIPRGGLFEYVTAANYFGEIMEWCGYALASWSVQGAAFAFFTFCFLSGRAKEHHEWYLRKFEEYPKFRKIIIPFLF
Nature of the assay: Inhibition of 5α-reductase in Hs68 human genital skin fibroblasts (conversion of labelled testosterone, TLC). To be noted: 1.0 μM test compound; Hs68 cells; 12 μM testosterone; 4 h; read-out: % Inhibition. The class given is cell-based. How it is done: Cell Culture: 5α-Reductase activity was measured using Hs68 human genital skin fibroblasts which were originally purchased from the American Type Culture Collection (Rockville, Md.). The cells were grown in Dulbecco's Modified Eagle's Medium (DMEM) plus 10% stripped fetal bovine serum which was supplemented with amphotericin B (0.25 μg/ml) and gentamicin (25.0 μg/ml) (GIBCO, Grand Island, N.Y.). The serum was stripped of endogenous steroids by incubation with dextran-coated charcoal prior to its addition to the media. The cells were maintained at 37° C. in an atmosphere of 95% air, 5% CO2 and were passaged every 7-10 days by exposure to a trypsin-EDTA solution (0.025% trypsin, 0.265 mM EDTA). Prior to the assay the Hs68 cells were harvested and plated in Falcon 6-well plates (Becton Dickinson Labware, Lincoln Park, N.J.) at a density of 6×10^4 cells per well. The cells were allowed to grow for 4-5 days or until they reached approximately 80% confluence.
Assay Method I: The substrate was prepared by dissolving unlabeled testosterone (Sigma Chemical Co., St. Louis, Mo.) in absolute ethanol followed by the addition of [7-^3 H (N)]-testosterone (23.3 Ci/mmole, New England Nuclear, Boston, Mass.). The steroid solution was taken to dryness under a stream of nitrogen and then reconstituted in media.
Assay Method II: The substrate used for this method was [^14 C]-testosterone (50 mCi/mmol) (New England Nuclear, Boston, Mass.). An aliquot of the substrate was taken to dryness under a stream of nitrogen. After the addition of 30 μl of ethanol, the testosterone was brought up in an appropriate volume of media.
Sample Preparation: The test compounds were dissolved in absolute ethanol in order to achieve the desired concentration. Subsequent dilutions of the test compounds with media were performed by the Biomek 1000 Automated Laboratory Workstation (Beckman Instruments, Palo Alto, Calif.). The existing media in the sample wells was aspirated and replaced with fresh media. Test compound was then added to the wells followed by the addition of 0.5 ml of the substrate. The volume of the incubation mixture was maintained at 2.0 ml. The final substrate concentration was 12 μM. The concentration of the test compounds ranged from 0.001-15 μM. An additional three wells (background) containing media and substrate but no cells were also included to account for the non-enzymatic metabolism of the substrate. The plates were returned to the incubator and incubated for four hours.
At the end of the incubation the media was collected and transferred to an extraction tube containing 5 ml of tolueneethanol (9:1), to which has been added 40-250 μg each of unlabeled carrier steroids (estriol, estradiol, estrone, 5α-androstan-3α,17β-diol, 5α-androstan-3β,17β-diol, 4-androstene-3,17-dione, 5α-androstan-3,17-dione, testosterone, and 5α-dihydrotestosterone) (Steraloids, Inc. Wilton, N.H.). In the case of Assay Method I the extraction tube also contained 1,000 and 10,000 dpm of [4-^14 C]-dihydrotesterone (50-60 mCi/mmol) and [4-^14 C]-testosterone (50 mCi/mmol) (New England Nuclear, Boston, Mass.), respectively. The [^14 C]-steroids were included as recovery standards to quantify procedural losses. A small amount of NaCl was also added to the extraction tubes to prevent foaming. The samples were vortexed for approximately 30 seconds and then centrifuged for 10 minutes at 500×g. The organic phase was collected and the samples taken to dryness, redissolved in dichloromethane-methanol (9:1) and were analyzed by thin layer chromatography using one of the methods described below.
Regarding `CN1C(=O)CCC2=C1CCc1cccc(F)c12` [Example 22, 10-fluoro-4-methyl-1,2,3,4,5,6-hexahydrobenzo[f]quinolin-3-one], the inhibition – broadly, the relative decrease from the control value, in per cent – at 1 µM was 35%. As to `O=C1CCC2=C(CCc3cc(F)ccc32)N1Cc1ccccc1` [Example 23, 8-fluoro-4-benzyl-1,2,3,4,5,6-hexahydrobenzo[f]quinolin-3-one], the inhibition at 1 µM is 37%. On the same count and under the same terms, with `Cc1cccc2c1C1=C(CC2)NC(=O)CC1` [Example 29, 10-methyl-1,2,3,4,5,6-hexahydrobenzo[f]quinolin-3-one] the figure was 41%; with `COc1ccc2c(c1)CCC1=C2CCC(=O)N1` [Example 11, 8-methoxy-1,2,3,4,5,6-hexahydrobenzo[f]quinolin-3-one], 20%; with `COc1cc2c(cc1OC)C1=C(CC2)NC(=O)CC1` [Example 28, 8,9-dimethoxy-1,2,3,4,5,6-hexahydrobenzo[f]quinolin-3-one], 33%. Still for that read-out and setting: with `CN1C(=O)CCC2=C1CCc1ccc(F)cc12` [Example 21, 9-fluoro-4-methyl-1,2,3,4,5,6-hexahydrobenzo[f]quinolin-3-one] the figure was 60%; with `CN1C(=O)CCC2=C1CCc1ccccc12` [Example 7, 4-methyl-1,2,3,4,5,6,-hexahydrobenzo[f]quinolin-3-one], 48%. `CN1C(=O)CCC2=C1CCc1c(F)cccc12` [Example 19, 7-fluoro-4-methyl-1,2,3,4,5,6-hexahydrobenzo[f]quinolin-3-one]: the inhibition at 1 µM was 61%. Same read-out and setting: in the case of `CCN1C(=O)CCC2=C1CCc1cc(F)ccc12` [Example 24, 8-fluoro-4-ethyl-1,2,3,4,5,6-hexahydrobenzo[f]quinolin-3-one] it was 31%. The same measure, in the same setting: with `COc1cccc2c1C1=C(CC2)NC(=O)CC1` [Example 27, 10-methoxy-1,2,3,4,5,6-hexahydrobenzo[f]quinolin-3-one] the figure was 0%; with `O=C1CCC2=C(CCc3cccc(Br)c32)N1` [Example 16, 10-bromo-1,2,3,4,5,6-hexahydrobenzo[f]quinolin-3-one], 14%.

Regarding `COc1ccc2c(c1)C1=C(CC2)NC(=O)CC1` [Example 26, 9-methoxy-1,2,3,4,5,6-hexahydrobenzo[f]quinolin-3-one], the inhibition at 1 µM was 12%. The same measure, in the same setting: in the case of `O=C1CCC2=C(CCc3cccc(Cl)c32)N1` [Example 17, 10-chloro-1,2,3,4,5,6-hexahydrobenzo[f]quinolin-3-one] it was 0.3%; in that of `O=C1CCC2=C(CCc3c(F)cccc32)N1` [Example 18, 7-fluoro-1,2,3,4,5,6-hexahydrobenzo[f]quinolin-3-one], 36%; in that of `O=C1CCC2=C(CCc3cc(Cl)ccc32)N1` [Example 10, 8-chloro-1,2,3,4,5,6-hexahydrobenzo[f]quinolin-3-one], 81%.

Still in this assay, the particulars now being: Hs68.
In turn, `O=C1CCC2=C(CCc3cccc(F)c32)N1` [Example 20, 10-fluoro-1,2,3,4,5,6-hexahydrobenzo[f]quinolin-3-one] registered an inhibition at 1 µM of 22%.

Source of the values: patent US5250539A, “Hexahydrobenzo[f]quinolinones” (priority 1991, dated 1993).
